We go through one molecule from US11465989B2, “Guanidine compounds and use thereof” (IMMUNOMET THERAPEUTICS INC., priority 2014, dated 2022).

Where a name gives a salt, the structure may show the parent alone.

As usually defined, the IC50 is the concentration that inhibits the measured activity by half.

Assay [1] deals with SK-MEL-28 cells. The experiment in a line: Cytotoxicity in low glucose condition (MTT). The conditions noted are these: Homo sapiens, SK-MEL-28, 0.75 mM glucose, 72 hours, read-out: SK-MEL-28 0.75 mM glucose Cell viability (IC50 ia). Format: cell-based.
Assay [2] has as its system A549 cells. The assay can be described thus: In vitro combination study with Dasatinib on A549 cell. In kind it is cell-based. Particulars: in combination with 0.05 μM of Dasatinib, 72-hour treatment. The protocol: (§1) A549, H1975 (CRL5908, ATCC) or U937 cell (CRL1593.2™, ATCC) lines were cultured in RPMI 1640 media (Lifetechnologies, CA) with supplement of 10% FBS and antibiotic-antimycotic (Lifetechnologies, CA). Dasatinib (Combi-Blocks, San Diego, Calif.) is Bcr-Abl-tyrosine kinase inhibitor and Src family tyrosine kinase inhibitor approved for CML treatment. GDC094 (Selleckchem, Houston, Tex.) is a pan-PI3K inhibitor and effective in various cancer cells. H1975 or A549 cells were dissociated from culture plate using 0.5% trypsin-EDTA (Lifetechnologies, CA) and were suspended. U937 cells were spun down using centrifugation. […]
(§2) Among four concentrations of the compounds of present invention, the highest concentration was set to IC80 and the lowest concentration was approximately IC30. […] 100 μl of DMSO was added after removing MTT solution from each well, and were read by VICTOR X3 Multilabel Counter at the wavelength of 550 nm.
(§3) For the analysis of U937 cell viability, 20 μl of Celltiter96® AQueous one solution (MTS, Promega, Madison, Wis.) were added to each well, and plates were incubated at 37° C. and 5% CO2. After 2 hours later, plates read by VICTOR X3 Multilabel Counter at the wavelength of 490 nm. The combination index (CI value) was calculated using Calcusyn (Biosoft, UK).

Assay [3] has as its system H1975 cell. The experiment in a line: In vitro combination study with Dasatinib on H1975 cell. In kind it is cell-based. Particulars: 0.2 μM of Dasatinib, 8 μM or 40 μM of Example 1, 40 μM or 200 μM of Example 104. The protocol: as §1, §2, §3
Assay [4] concerns A549 cell. The experiment in a line: In vitro combination study with GDC0941 on A549 cell. In kind it is cell-based. The protocol: as §1, §2, §3
For assay [5], the system named is SK-MEL-239 tumor cells. The assay can be described thus: In vivo xenograft model using SK-MEL-239 cell. Also noted: species or system mice. The protocol: The compounds of the present invention were evaluated in vivo using xenograft human cancer model in mice. The compounds of invention were administrated orally or interperitoneal injection. Tumor cell lines were cultured in vitro as monolayer culture. Using female BALB/c nude mice with immune system compromised, each mouse was inoculated subcutaneously at the right flank with tumor cells for tumor development. The treatment was started when the tumor size reaches approximately 100 mm^3
The SK-MEL-239 tumor cell line was maintained in vitro as monolayer in RPMII 640 medium supplemented with 10% heat inactivated fetal bovine serum, 100 U/ml penicillin and 100 μg/ml streptomycin, and L-glutamine (2 mM) at 37° C. in an atmosphere of 5% CO2 in air. The tumor cells were routinely subcultured twice weekly with 0.5% trypsin-EDTA treatment. The cells growing in an exponential growth phase were harvested and counted for tumor cell inoculation.
Female BALB/c nude mice aged 6-8 weeks and weighing approximately 18-22 g were purchased from Vital River. Each mouse was inoculated subcutaneously at the right flank with SK-MEL-239 tumor cells (1×10^7) in 0.1 ml of PBS for tumor development. The treatment was started, when the tumor size reaches approximately 100 mm^3. 100 mg/kg of Phenformin and 15 mg/kg of Vemurafenib were administered via oral gavage twice daily and 100 mg/kg HLPOI (HL176001001) was administered once daily for 21 days. Tumor volumes were measured twice a week in two dimensions using a caliper, and the volume was expressed in mm^3 using the formula: V=0.5×a×b^2, where a and b were the long and short diameters of the tumor, respectively. The T/C value (in percentage) was an indication of antitumor effect. T and C were the mean volumes of the treated and control groups, respectively.

[6] abbreviates: Dosing 100 mg/kg, once daily, Day 28.

In the case of `N=C(N)NC(=N)NCCc1ccc(Cl)c(Cl)c1` [Example 1, N-1-(3,4-dichloro)phenethylbiguanide hydrochloride], the 50% inhibitory concentration (IC50) in assay [1] lay in the range of 5 to 10 µM. Further, in assay [2], the “CI value (combination index)” value turned out to be 0.289. Also, the “combination therapy effect with Dasatinib” value in assay [3] is given as “low combination therapy effect”. Further, in assay [4], the “CI value (combination index)” value was “lower than 1”. For the same molecule, the “tumor volume compared to the control group” value in assay [5] (100 mg/kg, Phenformin twice daily, Example 1 once daily) is “significant reduction of tumor volume”. In assay [5] (setting [6]), the “T/C (Day 28, %)” value was determined as 65.4% and the “Tumor Volume (Day 28, mm^3, a)” value is on record as 1,869 ± 82 mm^3. Further, the “tumor volume compared to the single administration of Vemurafenib” value in assay [5] (in combination with 15 mg/kg of Vemurafenib) is recorded as “reduced the tumor volume”.
